Source: US20150343016A1, “CHEMICAL ENTITIES AND THERAPEUTIC USES THEREOF” (The Regents of the University of Colorado, a body corporate, priority 2010, published 2015)

Tested on: UM-SCC19 Head and Neck Cancer cell line
Experiment: MTT assay, Bouvardin with ionizing radiation, UM-SCC19 (pre-treated)
Assay type: cell-based, human
Conditions: UM-SCC19 cells
Protocol: “Combination Index” computation. Combination Indices were calculated using CalcuSyn software (Biosoft), which uses the method of Chou and Talalay. This method first computes drug-induced effect using the Hill Equation: where E is the measured effect; C is the drug concentration; Emax is the full range of drug effect, usually at or near 100%; IC50 is the drug concentration producing the median effect of 50%; and n is the curve shape parameter describing the steepness of the concentration-effect relationship. The Chou and Talalay method then linearizes the Hill Equation by logarithmic transformation as: where fu is the fraction of cells left unaffected after drug exposure, fa is the fraction of cells affected by the exposure, C is the drug concentration used, Cm is the concentration to achieve the median effect, and n is the curve shape parameter. Cm and n are equivalent to IC50 and n, respectively, in the Hill Equation. The values of n (obtained from the slope), nlog(Cm) (obtained from the absolute value of the intercept), and, therefore, Cm are obtained by plotting log(fu−1−1) versus log(C). These numbers are then used to compute the Combination Index (CI) according to the formula: CI=(D)1/(Dx)1+(D)2/(Dx)2 (26). (Dx)1 and (Dx)2 are the doses required to achieve a given effect level for each treatment, i.e. a specified value of Fraction Affected or Fa. (D)1 and (D)2 are the doses of each treatment in a given combination which gives the same Fa.
The growth inhibitory effects of Bouvardin with ionizing radiation (IR) were evaluated using a modified tetrazolium salt (MTT) assay. In the MTT assay, 1,000 to 2,000 viable cells were plated in 100 uL of growth medium in 96-well plates (Corning, Ithaca, N.Y.). Following an overnight incubation, drug was added in varying concentrations and the plates were irradiated on the same day (co-treatment) or 24 hr later (pre-treatment) and incubated for 6 to 7 days. The tetrazolium salt was added at a concentration of 0.4 mg/mL to each well following the 6- to 7-day treatment. The plates were incubated with the salt for 4 hours at 37° C. At 4 hours, the medium was aspirated off, leaving the dark blue formazan product at the bottom of the wells. The reduced MTT product was solubilized by adding […] of 0.2 N HCl in 75% isopropanol, 23% MilliQ water to each well. Thorough mixing was done using a Titertek multichannel pipetman. The absorbency of each well was measured using an automated plate reader (Molecular Devices, Sunnyvale, Calif.). All experiments were done in triplicate.
MTT assays were used to determine the effect of Bouvardin (concentrations in uM) in combination with ionizing radiation (in Gy, X-axis). FIG. 14 depicts CI values for Bouvardin and radiation on 3 cell lines. Combination Index data from 3 different Head and Neck Cancer cell lines are shown. Black dashed lines represent a CI value of 1. CI values below 1 indicate synergy. 1586 and UM-SCC19 were pre-treated whereas HN31 was treated on the same day.

**Q.** COc1ccc(C[C@H]2C(=O)N[C@H](C)C(=O)N(C)[C@@H]3C(=O)N(C)[C@@H](Cc4ccc(O)c(c4)Oc4ccc(cc4)[C@H]3O)C(=O)N[C@@H](C)C(=O)N[C@H](C)C(=O)N2C)cc1 (stereo in doubt) [Bouvardin, bouvardin] was tested. Which “Combination Index” value (Bouvardin 0.001 uM + 1 Gy IR) did it give?
**A.** 13.885

**Q.** And the “Fraction Affected” value (Bouvardin 0.001 uM + 1 Gy IR)?
**A.** 0.143

**Q.** What about the “Combination Index” value (Bouvardin 0.001 uM + 2 Gy IR) of the same compound?
**A.** 2.245

**Q.** What about the “Fraction Affected” value (Bouvardin 0.001 uM + 2 Gy IR) of the same compound?
**A.** 0.28

**Q.** And the “Combination Index” value (Bouvardin 0.001 uM + 4 Gy IR)?
**A.** 1.023

**Q.** What about the “Fraction Affected” value (Bouvardin 0.001 uM + 4 Gy IR) of the same compound?
**A.** 0.386

**Q.** And the “Combination Index” value (Bouvardin 0.003 uM + 1 Gy IR)?
**A.** 5.143

**Q.** What about the “Fraction Affected” value (Bouvardin 0.003 uM + 1 Gy IR) of the same compound?
**A.** 0.227

**Q.** What about the “Combination Index” value (Bouvardin 0.003 uM + 2 Gy IR) of the same compound?
**A.** 1.22

**Q.** What about the “Fraction Affected” value (Bouvardin 0.003 uM + 2 Gy IR) of the same compound?
**A.** 0.366

**Q.** And the “Combination Index” value (Bouvardin 0.003 uM + 4 Gy IR)?
**A.** 0.627

**Q.** And the “Fraction Affected” value (Bouvardin 0.003 uM + 4 Gy IR)?
**A.** 0.466

**Q.** And the “Combination Index” value (Bouvardin 0.006 uM + 1 Gy IR)?
**A.** 1.696

**Q.** And the “Fraction Affected” value (Bouvardin 0.006 uM + 1 Gy IR)?
**A.** 0.354

**Q.** What about the “Combination Index” value (Bouvardin 0.006 uM + 2 Gy IR) of the same compound?
**A.** 0.762

**Q.** And the “Fraction Affected” value (Bouvardin 0.006 uM + 2 Gy IR)?
**A.** 0.448

**Q.** And the “Combination Index” value (Bouvardin 0.006 uM + 4 Gy IR)?
**A.** 0.82

**Q.** And the “Fraction Affected” value (Bouvardin 0.006 uM + 4 Gy IR)?
**A.** 0.461

**Q.** And the “Combination Index” value (Bouvardin 0.01 uM + 1 Gy IR)?
**A.** 1.561

**Q.** And the “Fraction Affected” value (Bouvardin 0.01 uM + 1 Gy IR)?
**A.** 0.395

**Q.** And the “Combination Index” value (Bouvardin 0.01 uM + 2 Gy IR)?
**A.** 0.694

**Q.** And the “Fraction Affected” value (Bouvardin 0.01 uM + 2 Gy IR)?
**A.** 0.49

**Q.** What about the “Combination Index” value (Bouvardin 0.01 uM + 4 Gy IR) of the same compound?
**A.** 0.619

**Q.** And the “Fraction Affected” value (Bouvardin 0.01 uM + 4 Gy IR)?
**A.** 0.521

**Q.** What about the “Combination Index” value (Bouvardin 0.03 uM + 1 Gy IR) of the same compound?
**A.** 1.414

**Q.** What about the “Fraction Affected” value (Bouvardin 0.03 uM + 1 Gy IR) of the same compound?
**A.** 0.44

**Q.** And the “Combination Index” value (Bouvardin 0.03 uM + 2 Gy IR)?
**A.** 0.777

**Q.** And the “Fraction Affected” value (Bouvardin 0.03 uM + 2 Gy IR)?
**A.** 0.511

**Q.** And the “Combination Index” value (Bouvardin 0.03 uM + 4 Gy IR)?
**A.** 0.848

**Q.** What about the “Fraction Affected” value (Bouvardin 0.03 uM + 4 Gy IR) of the same compound?
**A.** 0.515

**Q.** And the “Combination Index” value (Bouvardin 0.06 uM + 1 Gy IR)?
**A.** 1.587

**Q.** And the “Fraction Affected” value (Bouvardin 0.06 uM + 1 Gy IR)?
**A.** 0.431

**Q.** What about the “Combination Index” value (Bouvardin 0.06 uM + 2 Gy IR) of the same compound?
**A.** 1.482

**Q.** What about the “Fraction Affected” value (Bouvardin 0.06 uM + 2 Gy IR) of the same compound?
**A.** 0.444

**Q.** What about the “Combination Index” value (Bouvardin 0.06 uM + 4 Gy IR) of the same compound?
**A.** 1.01

**Q.** And the “Fraction Affected” value (Bouvardin 0.06 uM + 4 Gy IR)?
**A.** 0.498

**Q.** What about the “Combination Index” value (Bouvardin 0.1 uM + 1 Gy IR) of the same compound?
**A.** 2.102

**Q.** What about the “Fraction Affected” value (Bouvardin 0.1 uM + 1 Gy IR) of the same compound?
**A.** 0.437

**Q.** What about the “Combination Index” value (Bouvardin 0.1 uM + 2 Gy IR) of the same compound?
**A.** 1.027

**Q.** And the “Fraction Affected” value (Bouvardin 0.1 uM + 2 Gy IR)?
**A.** 0.518

**Q.** And the “Combination Index” value (Bouvardin 0.1 uM + 4 Gy IR)?
**A.** 1.691

**Q.** What about the “Fraction Affected” value (Bouvardin 0.1 uM + 4 Gy IR) of the same compound?
**A.** 0.473

**Q.** And the “Combination Index” value (Bouvardin 0.3 uM + 1 Gy IR)?
**A.** 1.313

**Q.** What about the “Fraction Affected” value (Bouvardin 0.3 uM + 1 Gy IR) of the same compound?
**A.** 0.523

**Q.** What about the “Combination Index” value (Bouvardin 0.3 uM + 2 Gy IR) of the same compound?
**A.** 1.347

**Q.** And the “Fraction Affected” value (Bouvardin 0.3 uM + 2 Gy IR)?
**A.** 0.524

**Q.** And the “Combination Index” value (Bouvardin 0.3 uM + 4 Gy IR)?
**A.** 1.052

**Q.** And the “Fraction Affected” value (Bouvardin 0.3 uM + 4 Gy IR)?
**A.** 0.558

**Q.** What about the “Combination Index” value (Bouvardin 0.6 uM + 1 Gy IR) of the same compound?
**A.** 1.704

**Q.** And the “Fraction Affected” value (Bouvardin 0.6 uM + 1 Gy IR)?
**A.** 0.532

**Q.** What about the “Combination Index” value (Bouvardin 0.6 uM + 2 Gy IR) of the same compound?
**A.** 1.546

**Q.** And the “Fraction Affected” value (Bouvardin 0.6 uM + 2 Gy IR)?
**A.** 0.545

**Q.** And the “Combination Index” value (Bouvardin 0.6 uM + 4 Gy IR)?
**A.** 1.251

**Q.** And the “Fraction Affected” value (Bouvardin 0.6 uM + 4 Gy IR)?
**A.** 0.573

**Q.** And the “Combination Index” value (Bouvardin 1 uM + 1 Gy IR)?
**A.** 13.885

**Q.** What about the “Fraction Affected” value (Bouvardin 1 uM + 1 Gy IR) of the same compound?
**A.** 0.143

**Q.** And the “Combination Index” value (Bouvardin 1 uM + 2 Gy IR)?
**A.** 2.245

**Q.** And the “Fraction Affected” value (Bouvardin 1 uM + 2 Gy IR)?
**A.** 0.28

**Q.** And the “Combination Index” value (Bouvardin 1 uM + 4 Gy IR)?
**A.** 1.023

**Q.** And the “Fraction Affected” value (Bouvardin 1 uM + 4 Gy IR)?
**A.** 0.386
